# Results reported in patent US12419811B2, “Hydrogel drug delivery composition” (Board of Regents of the University of Nebraska, priority 2019, dated 2025).
# What was measured:
# [1] = tested on: experimental periodontitis; experiment: BIO hydrogels in rat experimental periodontitis, H&E histology scores; format: in vivo, Sprague Dawley rats
# Text: (§1) Ten-month-old female Sprague Dawley rats (retired breeders, Envigo) were acclimated for one week prior to experiment. […] Using silk ligatures, the experimental periodontitis was induced as described previously^[32, 38]. Briefly, rats were first anesthetized in an isoflurane chamber with a 1% to 4% isoflurane in 100% O2. After taking the body weight, the rats were positioned with a nose cone supplied with 0.5% to 2% isoflurane and 100% O2 to maintain anesthesia during the entire procedure. To induce experimental periodontitis, a 4-0 silk ligature was gently tightened subgingivally around the maxillary 2nd molars (M2). […] To probe the presence of inflammatory cells between M1 and M2 and osteoclasts in the alveolar crest, a pathologist (SML) blind to experimental group assignment, evaluated the slides semi-quantitatively using an Olympus BX53 microscope. A semi-quantitative scoring system^[32, 40, 41] was used to evaluate inflammatory cells, where 0 is negative, 1 is less than 30% of the affected tissues, 2 is some inflammatory cells (30-60%), and 3 is many inflammatory cells (>60%). Similarly, osteoclasts on the alveolar crest were evaluated using a semi-quantitative scoring system^[32,42] where 0 is negative, 1 is a few osteoclasts lining less than 5% of alveolar bone surface, 2 is some osteoclasts (5-25%), and 3 is many osteoclasts (25-50%). […]
# [2] = tested on: β-catenin; experiment: BIO hydrogels in rat experimental periodontitis, IHC staining of β-catenin; format: in vivo, Sprague Dawley rats; details: between M1 and M2
# Text: as §1
# [3] = In vitro release of BIO from PF127 hydrogel (membrane-less); format: physicochemical; details: 37° C.
# Procedure: After gelation, 2 mL of phosphate-buffered saline (PBS; pH 7.4) containing 0.5% Tween 80 pre-equilibrated at 37° C. were gently laid over the surface of the hydrogels and incubated in a water bath at 37° C. with continuous gentle shaking. […] The release study was performed in triplicate.
# [4] = tested on: experimental periodontitis; experiment: BIO hydrogels in rat experimental periodontitis, micro-CT of periodontal bone and femur; format: in vivo, Sprague Dawley rats; details: 100 μM BIO, week 4
# Text: Ten-month-old female Sprague Dawley rats (retired breeders, Envigo) were acclimated for one week prior to experiment. […] Using silk ligatures, the experimental periodontitis was induced as described previously^[32, 38]. Briefly, rats were first anesthetized in an isoflurane chamber with a 1% to 4% isoflurane in 100% O2. After taking the body weight, the rats were positioned with a nose cone supplied with 0.5% to 2% isoflurane and 100% O2 to maintain anesthesia during the entire procedure. To induce experimental periodontitis, a 4-0 silk ligature was gently tightened subgingivally around the maxillary 2nd molars (M2). Following ligature placement, different treatments (10 μL) were locally delivered between the maxillary 1st molar (M1) and 2nd molar (M2) once each week for 3 weeks. After one week, the ligatures were removed. All animals were euthanized at week 4. The entire palate including all three molars was dissected and fixed in 10% formalin prior to micro-CT and histological analyses. […] All palate samples (including all three molars) were evaluated for alveolar bone quality using a high-resolution X-ray microtomography system (Skyscan 1172, Bruker, Kontich, Belgium), references to previous studies^[32, 38]. […] To evaluate bone erosion, the distance from cementoenamel junction (CEJ) to alveolar bone crest (ABC) was determined using Skyscan Data viewer software. […] The ROI was determined from the distopalatal of M1 to the mesiopalatal of M2 (length), 130 slices below the CEJ of M1 and M2 (height), and from the palatal side to the buccal side of M1 and M2 (width). […] For bone quality analysis, a consistent polygonal ROI of trabecular bone at the distal femur was selected and the ROI was determined from 20 slices to 100 slices proximal to the growth plate. The bone histomorphometric parameters, including mean bone volume (BV), bone volume/tissue volume (BV/TV), trabecular thickness (Tb.Th) and bone mineral density (BMD) were determined using CT-Analyzer software.
# [5] = 10 μL local once each week for 3 weeks
smiles,measurement,setting,value
"O=C1Nc2cc(Br)ccc2/C1=C1/Nc2ccccc2/C1=N\O [BIO, 6-bromoindirubin-3′-oxime]","osteoclast score (semi-quantitative, 0-3)","[1]; alveolar crest, after three weeks of treatment",significantly lower than the saline Con-group
same,"inflammatory cell score (semi-quantitative, 0-3)","[1]; between M1 and M2, after three weeks of treatment",statistically significant difference (P<0.01) only when compared to the saline Con-group
same,β-Catenin positive cell score (0-3),[2],"not significantly different (P>0.05) from the saline Con-, PF127, and healthy Con+ group"
same,burst release of BIO,"[3]; from 20% w/v PF127 hydrogel, first 3 hr",~50%
same,total release of BIO,"[3]; from 20% w/v PF127 hydrogel, in 24 hr",~99%
same,BIO release profile,[3]; from 25% w/v PF127 hydrogel,burst release in the first 12 hr followed by a sustained release in the next 48 hr
same,duration of sustained BIO release,[3]; from 30% w/v PF127 hydrogel,over 48 hr
same,linear distance CEJ to ABC (alveolar bone loss),[4]; 10 μL local between M1 and M2 once each week for 3 weeks,did not show a statistically significant difference comparing to the saline-treated group
same,Bone volume (BV) of alveolar bone,[4]; [5],No statistically significant difference
same,trabecular thickness (Tb.Th) of alveolar bone,[4]; [5],No statistically significant difference
